Measured values: a melting point compilation (Tetko et al.; mined from patent text by program, amines drawn as free bases though some values may be those of a salt)

Compound | melting point
O=C(Nc1ccccc1[N+](=O)[O-])C12CC3CC(CC(C3)C1)C2 | 111 to 114 °C
CC(=O)OC1CC2CCC3C(CCC4(C)C(O)C(N5CCCCC5)CC34)C2(C)CC1N1CCOCC1 (stereo unspecified) | 148 to 152 °C
CC(=O)Nc1ccc(OC(F)(F)C(F)F)cc1 | 121 to 122 °C
CCc1nc2nccc(-c3cccc(C(F)(F)F)c3)n2n1 | 132 to 134 °C
NC=C1C(=O)c2ccccc2OC1c1ccccc1 (stereo unspecified) | 149 to 152 °C
CC1CC2=CC(=O)CCC2C2CCC3(C)C(C(F)F)CCC3C12 (stereo unspecified) | 131 to 135 °C
COc1cc(N2CCOCC2)ccc1Nc1nc(Nc2ccc(OC)c3c2N(C)C(=O)CCC3)ncc1Cl | 230 to 232 °C
O=C(O)c1cn(-c2ccc(F)cc2)c2cc(F)c(F)cc2c1=O | 252 to 256 °C
Cc1c(N2C[C@@H](NC(=O)C(F)(F)F)C3(CC3)C2)c(F)c(N)c2c(=O)c(C(=O)O)cn(C3CC3)c12 | 246 to 248 °C
CN1CCN(c2ccc(Nc3ncc4ccc(-c5ccccc5OCC#N)n4n3)cc2)CC1 | 95 to 101 °C
O=C(NCc1ccccn1)Nc1cc(N2C(=O)CCc3ccccc32)ccn1 | 194 to 195 °C
COc1ccc(-c2cc(C(Nn3cnnc3)c3ccccc3OS(N)(=O)=O)ccc2C#N)cc1 (stereo unspecified) | 184 to 186 °C
O=C(C=Cc1ccc(Oc2ccccc2)cc1)c1ccc(F)cc1 | 116 °C
Cc1ccc(-c2csc(/C=C/C(=O)O)c2)cc1 | 206 to 207 °C
CCNC(=S)NS(=O)(=O)c1cc2c(cc1OC)OCCC2CNC(=O)c1cc(F)ccc1OC (stereo unspecified) | 207 °C
COc1cccc(OC)c1C(=O)Nc1ccc(OCCN2CCCCC2)cc1 | 114 to 118 °C
Cc1onc(-c2ccccc2)c1C(=O)NCCCN1CCN(c2ccc(F)cc2OCC(F)(F)F)CC1 | 112 to 135 °C
CCNC(=O)Nc1ccc(-c2nc3n(Cc4c(F)cccc4F)cc(C(=O)OC(C)C)c(=O)n3c2CN(C)Cc2ccccc2)cc1 | 198 to 200 °C
N#Cc1c(N2CCN(C(=O)c3cccs3)CC2)c2cc(F)cnc2[nH]c1=O | 244 °C
COc1ccc(C(F)(F)F)cc1-n1c(=O)[nH]c2cc(C(F)(F)F)ccc21 | 226 °C
COc1ccc2c(c1)c1c(n2C(=O)c2ccc(Cl)cc2)CCCC1C(=O)O (stereo unspecified) | 181 to 185 °C
COc1ccc(CC(=O)c2ccc(OC)c(F)c2)cc1 | 142 to 143 °C

Compound | melting point
COc1ccc2[nH]c3c(C(=O)Nc4ccc(CCCCN(C)CCc5ccc(OC)c(OC)c5)cc4)cccc3c(=O)c2c1 | 155 °C
Nc1ncnc2c1c(-c1cccc(F)c1)nn2Cc1oc2ccccc2c(=O)c1-c1ccccc1 | 244 to 247 °C
COc1cc2cc(N)cnc2cc1F | 153 °C
O=C1OC(=O)c2c1ccc1ccc3ccccc3c21 | 245 °C
C=CCN1CC(C)N(C(c2ccsc2)c2cccc(O)c2)CC1C (stereo unspecified) | 140 to 142 °C
Clc1ccc2c(C3=CCNCC3)c[nH]c2c1Cl | 252 to 254 °C
CSCCNC(=O)c1cccc(-c2cccc3cc(Cc4cccc(C(F)(F)F)c4)oc23)c1 | 135 to 138 °C
COc1ccc(CC(OC)C(=O)O)cc1NC(=O)Cc1ccc(C(F)(F)F)cc1 (stereo unspecified) | 124 to 125 °C
N#Cc1cc(Cl)c(Cl)c(-c2ccc(Cl)cc2)n1 | 142 to 145 °C
OCCCc1ccc(OCc2coc(/C=C/c3ccccc3)n2)cc1 | 95 to 96 °C
Cc1ccc(S(N)(=O)=O)cc1NC(=O)c1cnn2c(C(F)(F)F)cc(-c3ccc(C(F)(F)F)cc3)nc12 | 310 °C
O=P(O)(O)Cc1ccccc1CP(=O)(O)O | > 300 °C
CC(C#N)c1cccc2c(-c3ccccc3)onc12 (stereo unspecified) | 109 to 112 °C
COc1ccc(OCCC2CCN(c3cc(Cl)nnc3Cl)CC2)cc1 | 119 to 120 °C
CCCCCCCCOC(=O)C(N)C=CCP(=O)(O)O (stereo unspecified) | 161 to 162 °C
O=C(Cc1cccs1)Nc1n[nH]c2cc(Cl)ccc12 | 210 °C
Cc1nc(Cl)c2n1-c1ccccc1C(c1ccccc1F)N(C)C2 (stereo unspecified) | 156 to 158 °C
Nc1ccc(C(=O)OCc2ccccc2)c(F)n1 | 92 to 94 °C
O=C(Nc1ccc2c(c1)CCC(CCl)=C2)c1ccc(-c2ccc(Cl)cc2)cc1 | 179 to 181 °C
CC(=O)Oc1ccc(-c2cc(=O)c3cc(Br)cc([N+](=O)[O-])c3o2)cc1F | 236 to 238 °C
O=CN1CCN(c2nc(N3CCSCC3)c3ncnc(NCc4ccccc4)c3n2)CC1 | 94 to 96 °C
NC(c1ccccc1)c1ccc(OCCCOc2ccc(C(N)c3ccccc3)cc2)cc1 (stereo unspecified) | 118 to 119 °C

Compound | melting point
CS(=O)(=O)NC(=O)NCCCCC1CCSS1 (stereo unspecified) | 125 to 127 °C
Cc1ccccc1N1CCN(Cc2c[nH]c3ncccc23)CC1 | 174 to 176 °C
COc1cc(/C=C/c2cc(/C=C/c3c[nH]c4ccccc34)n[nH]2)ccc1OCc1ccccn1 | 120 to 130 °C
O=Cc1csc(NC2CC2)n1 | 124 to 127 °C
Cc1cnc2[nH]cc(/C=C3\N=C(N4CCN(c5ccccc5)CC4)NC3=O)c2c1 | 331 to 332 °C
CC(=O)NCC(=O)NCC1(SCc2ccccc2)C2CC3CC(C2)CC1C3 (stereo unspecified) | 132 to 134 °C
CCc1noc(-c2ncc3[nH]c4cccc(OCc5ccccc5)c4c3c2COC)n1 | 180 to 184 °C
CNC(=O)C(=NOC)c1ccccc1C#Cc1ccccc1C | 128 to 129 °C
COc1cc(-c2csc(CN(C)C(=O)OC(C)(C)C)n2)cc(OC)c1OC(C)=O | 135 to 137 °C
O=C(O)Cc1cc(Cl)c2c(c1)CCC(c1ccccc1F)N2 (stereo unspecified) | 127 to 129 °C
CN1CC(C)(C)c2ccc(NC(=O)/C=C/c3ccc(C(C)(C)C)cc3)cc21 | 90 to 101 °C
COc1cc(OC)c2c(=O)[nH]c(-c3ccc(OCCN(C(=O)OC(C)(C)C)C(C)C)c(-c4ccc(S(C)=O)cc4)n3)nc2c1 (stereo unspecified) | 114 to 116 °C
O=C(O)CCc1oc(Sc2nccn2-c2ccccc2)nc1-c1ccc(Cl)cc1 | 185 to 187 °C
C=CC(=O)OCCCCCCOc1ccc(C(=O)OCCOCC2(c3ccccc3)C=CC=CC2C=Cc2ccc(OCCCCCC)cc2)cc1 (stereo unspecified) | 87 °C
CN(C(=O)Nc1ccccc1)c1cccc(-c2ccc(CC3SC(=O)NC3=O)cc2)c1 (stereo unspecified) | 183 °C
O=[N+]([O-])C(CN1CCOCC1)=C1NCCCS1 | 131 to 132 °C
Cc1c(C)c2c(c(C)c1OC(=O)c1ccccc1)SC(C)O2 (stereo unspecified) | 100 to 102 °C
Nc1nc(C2CCN(C(=O)c3ccccc3)CC2)c2ccccc2n1 | 138 °C
CCCCCCCCCCCCc1c[nH]c2cc(C(=O)OC)ccc12 | 85 to 89 °C
C#CC(C)(C)OC(=O)N1CCNCC1 | 35 to 38 °C
COc1cc(C2=CCCCC2)c(Cl)cc1C(=O)N1Cc2cccn2Cc2ccccc21 | 92 to 98 °C
CCCCCCC(O)CNCC(O)CO (stereo unspecified) | 85 to 90 °C

Continued, values first:

melting point | Compound
227 °C | Nc1ccccc1C(=O)NCCN1CCC(n2c(=O)[nH]c3cc(Cl)ccc32)CC1
120 to 122 °C | COc1cc(C=O)c(F)cc1Cl
166 to 167 °C | CCOC(=O)c1cc(NCc2ccccc2)c(Sc2ccccc2C)c(S(N)(=O)=O)c1
286 to 287 °C | CCOc1csc2c(=O)c(C(N)=O)cn(C)c12
129 to 131 °C | C#Cc1cccc(C2=CC(=O)NC2=O)c1
136 to 137 °C | O=C(Nc1ccc(Cl)c(C(F)(F)F)c1)C1C(=O)C2CCC(C2)C1=O (stereo unspecified)
88 to 89 °C | CCn1c(Cl)c(C=O)c(=O)n(CC)c1=O
113 to 116 °C | CSc1nn2c(Cl)cc(CN3CCN(C)CC3)nc2c1S(=O)(=O)c1ccccc1
235 to 237 °C | CC(=O)Oc1cc2nc[nH]c(=O)c2cc1OC(C)=O
128 to 131 °C | CCc1nnc2cc(N3CCN(C)CC3)nc(CC)n12
128 to 129 °C | CC(C)(C)c1cc(CCC(=O)O)n(Cc2ccc(C(F)(F)F)cc2Cl)n1
104 to 106 °C | COC(=O)c1cc(C)cnc1C1=NC(C)(C(C)C)C(=O)N1C(=O)c1ccccc1 (stereo unspecified)
191 to 194 °C | CCS(=O)(=O)Nc1cc(-c2ncnc(C(F)(F)F)c2Cl)c(F)cc1C#N
108 to 110 °C | CC(C)(CCl)C(=O)N(O)Cc1ccccc1Cl
166 to 168 °C | Cc1cc(CNC(=O)CCl)c(O)c2c1CCC2=O
184 to 186 °C | CCC(O)CN1CCN(C2Cc3ccc(F)cc3Sc3ccc(N)cc32)CC1 (stereo unspecified)
124 to 126 °C | CN1C(=O)C2CCCN2C(=O)c2ccccc21 (stereo unspecified)
245 to 246 °C | COC(=O)C(C)(C)c1ccc(C(=O)Nc2cn3cc(Cl)ccc3n2)cc1

melting point | Compound
177 to 178 °C | CC(C)(C)c1ccc(-c2ccc(F)cc2)n1CC[C@H]1C[C@H](O)CC(=O)O1 (relative stereo)
241 to 244 °C | CCN1c2ncccc2C(=O)Nc2c(C)cc(NCCO)nc21
102 to 105 °C | Cc1cc(C(F)(F)F)nn1CC(=O)N1CCC(c2nc(NC(=O)C3=C(O)CCCC3=O)cs2)CC1
142 °C | CCOC(=O)C1=C(C)NC(C=O)=C(C(=O)OCC)C1c1cccc(O)c1 (stereo unspecified)
87 to 89 °C | Cc1cc(OCC(O)CCCl)ccc1Cl (stereo unspecified)
127 to 131 °C | Cn1cnc2c(Cl)nccc21
195 to 196 °C | N#Cc1ccc(-c2csc(N3C(=O)OC[C@H]3CF)n2)cc1
236 to 238 °C | CS(=O)(=O)NC(=O)Cc1ccc2c(c1)Nc1nccnc1S2
206 to 208 °C | CCOC(=O)c1cn2c(n1)CNc1ccccc1-2
191 °C | CO[C@@H]1CN(CCC#N)CC[C@@H]1NC(=O)c1cc(Cl)c(N)c2c1OCC2 (relative stereo)
89 to 90 °C | COc1ccc(NC(=O)CCCCC(=O)N(C)OC)cc1
206 to 207 °C | CCCC(=O)c1c[nH]c2c(OC)nccc2c1=O
85 °C | CNCCCNC(=O)[C@@H]1CCCN1S(=O)(=O)c1ccc(Cl)c(COc2cccc3c(C)cc(C)nc23)c1Cl
> 230 °C | Cc1nnc(C)n1-c1ccc(C#N)cc1
189 to 191 °C | CCOC(=O)c1cnn2c1c(S)nc1c(C)nn(C)c12
125 to 126 °C | CC(C)CCS(=O)(=O)CC[C@H](O)[C@@H](N)CC(C)C
179 to 181 °C | N#CN1CCN(c2nn(S(=O)(=O)c3ccccc3)c3cc(Cl)ccc23)CC1
